The source of these data is patent EP4664463A1, “COMPUTER-IMPLEMENTED METHOD FOR OLFACTORY PROPERTY PREDICTION” (Givaudan SA, priority 2024, dated 2025).

The term EC50 denotes the concentration needed to bring the measured effect to its halfway point.

For series [1], the target named is T1, OR10H5 (Homo sapiens, UniProt Q8NGA6).
T1 construct: expressed in transfected cells; host or cells: HEK293T cells stably expressing human RTP1S (V227I) and RTP2 (L220R)
The series can be described thus: Luciferase dose-response, wild-type vs changed C-terminus (SEQ ID NO: 86). The series is classed as cell-based. The following applies: wild-type. An excerpt: (§1) To create an expression plasmid, an OR coding sequence fused at the end of TM7 to the desired C-terminus sequence was synthesized by a DNA synthesis service provider (BioCat GmbH, Germany) and inserted into pcDNA3.1(+) (Invitrogen, MA, USA) downstream of the CMV promoter sequence (SEQ ID NO: 82) using BamHI and Notl restriction sites. All the synthetic OR nucleotide sequences described below in Examples 1-15 further contained at their N-terminus a nucleotide sequence encoding a signal peptide (mmLucy-FLAG-rho, SeQ ID NOs: 80, 81) and at the C-terminus the bgh terminator sequence (SEQ ID NO: 83). All the OR expression plasmids also contain a Kozak sequence (GCCACC) between the BamHI restriction site and the start codon of the signal peptide. These plasmids thus contain a constitutively expressed OR gene.
T1 sequence (Q8NGA6 whole entry): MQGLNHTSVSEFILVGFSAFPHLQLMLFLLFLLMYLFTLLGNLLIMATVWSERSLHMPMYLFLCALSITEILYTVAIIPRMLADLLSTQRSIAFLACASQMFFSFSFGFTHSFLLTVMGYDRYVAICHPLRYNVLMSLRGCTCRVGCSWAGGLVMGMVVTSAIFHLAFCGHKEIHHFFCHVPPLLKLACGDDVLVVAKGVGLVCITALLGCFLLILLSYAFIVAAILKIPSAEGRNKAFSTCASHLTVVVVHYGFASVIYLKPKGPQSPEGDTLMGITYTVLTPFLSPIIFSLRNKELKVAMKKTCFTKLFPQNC

The target in series [2] is T2, OR10H5 (Homo sapiens, UniProt Q8NGA6).
T2 construct: expressed in transfected cells; host or cells: HEK293T cells stably expressing human RTP1S (V227I) and RTP2 (L220R)
The description is as above. The format is cell-based.
Description: as §1
T2 sequence (Q8NGA6 with tags, fused parts or gaps): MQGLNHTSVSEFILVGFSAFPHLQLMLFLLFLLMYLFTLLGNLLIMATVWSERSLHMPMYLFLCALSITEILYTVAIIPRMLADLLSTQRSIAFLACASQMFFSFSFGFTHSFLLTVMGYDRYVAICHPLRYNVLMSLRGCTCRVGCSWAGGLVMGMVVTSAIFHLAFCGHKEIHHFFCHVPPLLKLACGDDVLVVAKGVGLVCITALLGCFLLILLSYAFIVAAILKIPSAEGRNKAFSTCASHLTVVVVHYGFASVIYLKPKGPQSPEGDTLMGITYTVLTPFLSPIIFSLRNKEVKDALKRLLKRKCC

For series [3], the system named is OR10H5. Described as above. The format is cell-based, human.
Description: as §1

Series [4] has as its target T3, OR5A2 (Homo sapiens, UniProt Q8NGI9).
T3 construct: expressed in transfected cells; host or cells: HEK293T cells with stably integrated human RTP1S (V227I) and RTP2 (L220R)
T3 sequence (Q8NGI9 1-324): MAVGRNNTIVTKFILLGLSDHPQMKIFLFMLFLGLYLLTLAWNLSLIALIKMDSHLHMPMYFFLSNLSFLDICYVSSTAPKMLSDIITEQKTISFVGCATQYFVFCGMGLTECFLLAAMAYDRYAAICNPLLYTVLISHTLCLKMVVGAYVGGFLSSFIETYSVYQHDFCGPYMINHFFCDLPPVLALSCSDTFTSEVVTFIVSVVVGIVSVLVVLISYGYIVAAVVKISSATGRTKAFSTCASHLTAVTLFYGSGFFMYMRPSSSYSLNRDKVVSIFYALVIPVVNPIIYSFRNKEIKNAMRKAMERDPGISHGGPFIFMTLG
The description is as above. The format is cell-based.
Description: as §1

Series [5] deals with T4, OR5A2 (Homo sapiens, UniProt Q8NGI9).
T4 construct: expressed in transfected cells; host or cells: HEK293T cells with stably integrated human RTP1S (V227I) and RTP2 (L220R)
T4 sequence (Q8NGI9 with tags, fused parts or gaps): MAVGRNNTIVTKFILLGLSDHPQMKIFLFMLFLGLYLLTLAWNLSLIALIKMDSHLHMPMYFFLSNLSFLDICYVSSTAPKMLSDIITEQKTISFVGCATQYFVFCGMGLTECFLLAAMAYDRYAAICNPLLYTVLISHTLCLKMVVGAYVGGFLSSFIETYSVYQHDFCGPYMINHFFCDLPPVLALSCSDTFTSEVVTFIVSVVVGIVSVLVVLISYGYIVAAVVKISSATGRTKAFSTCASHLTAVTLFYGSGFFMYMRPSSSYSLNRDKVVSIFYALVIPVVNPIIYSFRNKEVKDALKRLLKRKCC
Described as above. The series is classed as cell-based.
Description: as §1
This is another data set of the same source.

Series [6] deals with OR5A2. The description is as above. The format is cell-based, human.
Description: as §1

The target in series [7] is T5, OR8K3 (Homo sapiens, UniProt Q8NH51).
T5 construct: expressed in transfected cells; host or cells: HEK293T cells stably expressing human RTP1S (V227I) and RTP2 (L220R)
T5 sequence (Q8NH51 1-312): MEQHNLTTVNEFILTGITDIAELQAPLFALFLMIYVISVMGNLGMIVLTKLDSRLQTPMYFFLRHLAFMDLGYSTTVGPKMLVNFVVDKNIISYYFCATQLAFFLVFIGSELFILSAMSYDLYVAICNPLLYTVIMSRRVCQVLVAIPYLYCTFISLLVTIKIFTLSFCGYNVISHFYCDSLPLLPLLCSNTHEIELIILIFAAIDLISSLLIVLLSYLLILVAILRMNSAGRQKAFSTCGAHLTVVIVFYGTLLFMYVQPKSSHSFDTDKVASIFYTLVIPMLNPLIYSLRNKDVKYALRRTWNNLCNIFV
As to the kind of experiment: cell-based. The series is classed as cell-based.
Description: as §1
(§2) Thus, using the improved sensitivity of the assay provided by the modified variant, activation of OR8K3 by a broader set of mint-smelling molecules can be detected.
(§3) Knowing the importance of the C-terminal sequence for proper expression as observed in the previous examples, an obvious way to improve expression might be just to provide a hybrid receptor whereby the C-terminal domain in a non-functional or poorly functional receptor is replaced by the C-terminal domain of a functional receptor. […] Thus the C-terminal sequence of OR8K3 was replaced with the C-terminal sequence of the ambrettolide-receptor OR1N2 or the musk receptor OR5AN1. […] Thus the improvement achieved with the modified C-terminal sequences of this disclosure cannot be achieved by simply generating chimeric receptors combining a functional C-terminal domain of a functional receptor with a poorly expressed receptor.

Series [8] addresses T6, OR8K3 (Homo sapiens, UniProt Q8NH51, D295E/Y298D).
T6 construct: expressed in transfected cells; host or cells: HEK293T cells stably expressing human RTP1S (V227I) and RTP2 (L220R)
T6 sequence (Q8NH51 with tags, fused parts or gaps D295E/Y298D): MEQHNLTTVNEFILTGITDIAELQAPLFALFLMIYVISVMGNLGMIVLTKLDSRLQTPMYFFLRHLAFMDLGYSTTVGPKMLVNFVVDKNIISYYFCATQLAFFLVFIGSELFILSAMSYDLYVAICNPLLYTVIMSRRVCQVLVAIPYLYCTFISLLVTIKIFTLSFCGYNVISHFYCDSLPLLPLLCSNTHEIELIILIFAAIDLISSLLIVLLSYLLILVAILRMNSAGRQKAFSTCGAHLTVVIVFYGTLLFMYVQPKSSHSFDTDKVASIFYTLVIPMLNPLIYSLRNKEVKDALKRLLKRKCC
As to the kind of experiment: cell-based. The format is cell-based.
Description: as §1, §2, §3

The subject of series [9] is OR8K3. As to the kind of experiment: cell-based. The series is classed as cell-based, human.
Description: as §1, §2, §3

In series [10] the target is T7, OR5AN1 (Homo sapiens, UniProt Q8NGI8).
T7 construct: expressed in transfected cells; host or cells: HEK293T stably expressing human RTP1S(V227I) and RTP2(L220R)
T7 sequence (Q8NGI8 with tags, fused parts or gaps limits assumed): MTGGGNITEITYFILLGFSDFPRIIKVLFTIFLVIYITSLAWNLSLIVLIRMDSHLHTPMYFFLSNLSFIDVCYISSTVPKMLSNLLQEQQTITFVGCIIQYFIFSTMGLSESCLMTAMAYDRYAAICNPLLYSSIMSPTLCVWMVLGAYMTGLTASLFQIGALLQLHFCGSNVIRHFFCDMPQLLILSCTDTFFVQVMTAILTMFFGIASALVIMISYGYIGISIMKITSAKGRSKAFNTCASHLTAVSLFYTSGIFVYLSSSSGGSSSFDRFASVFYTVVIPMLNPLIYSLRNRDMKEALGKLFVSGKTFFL
As to the kind of experiment: Chimeric OR5AN1 with C-terminal sequence of OR1N2 (luciferase). The series is classed as cell-based. The text has this:
Similarly, the C-terminal sequence of OR5AN1 was replaced with the C-terminal sequence of the ambrettolide receptor OR1 N2.

Series [11] has as its target T8, OR14J1 (Homo sapiens, UniProt Q9UGF5).
T8 construct: expressed in transfected cells; host or cells: HEK293T stably expressing human RTP1S(V227I) and RTP2(L220R) (general method)
The series can be described thus: Activation of modified OR14J1 (SEQ ID NO: 221), library hit and dose-response. The format is cell-based. The following applies: SEQ ID 221. How it is done: Parallel transfection experiments were conducted with all these plasmids (n = 408) and cells expressing the different OR were stimulated with one given ligand at a time, tested at the maximal, clearly non-cytotoxic concentration. In total 26 different ligands were tested on the full library of class II receptors.
Table 16. Ligands tested on the full library of OR and cognate receptors identified for these ligands

Where [12] appears, read: changed C-term SEQ ID NO: 86, read-out: Potency EC50.

Entries after “also recorded” stand apart in the source; their conditions may differ. Where two headings read alike, the source gives them in different places. Marks after values point to notes of the source that are not given here.

T8 sequence (Q9UGF5 with tags, fused parts or gaps): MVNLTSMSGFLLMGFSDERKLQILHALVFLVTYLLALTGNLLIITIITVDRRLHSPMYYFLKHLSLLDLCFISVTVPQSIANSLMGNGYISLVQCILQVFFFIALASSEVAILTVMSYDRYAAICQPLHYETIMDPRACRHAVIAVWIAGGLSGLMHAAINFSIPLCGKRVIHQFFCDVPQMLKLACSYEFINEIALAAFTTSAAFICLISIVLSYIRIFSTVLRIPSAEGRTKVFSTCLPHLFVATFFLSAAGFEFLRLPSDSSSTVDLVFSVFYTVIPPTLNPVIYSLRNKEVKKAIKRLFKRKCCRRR

Take `Cc1ccc2c(c1)OCC(=O)CO2` [Calone]: the results for the “Detection threshold; concentration for 2-fold induction” value in [1] and in series [2] (changed C-term. SEQ ID NO: 86) were 60.1 µM and 24.3 µM, respectively. In addition, the EC50 is 41 µM in [1] (read-out: Potency EC50) and 60 µM in series [2] (setting [12]). Also, in series [3], the Comments on efficacy is 3-fold lower maximal induction for wild-type. Further, the Fold-improvement threshold in series [3] came out at 2.5. In addition, in series [3] (higher EC50 due to much higher efficacy of optimized C-terminus), the Fold-improvement potency was 0.7 *.

With `CC1COCc2cc3c(cc21)C(C)(C)C(C)C3(C)C` (stereo not drawn) [Galaxolide], the EC50 in series [4] (Potency EC50, wild-type) is over 31 µM; in series [5] (Potency EC50, changed C-term SEQ ID NO: 86) it was 100 nM. In addition, the “Detection threshold; concentration for 2-fold induction” value in series [4] (wild-type) is given as “n.i. (>> 31) µM”; in series [5] (changed C-term. SEQ ID NO: 86), 0.0016 µM. For the same compound, in [4] (wild-type OR5A2), the “activation of the wild-type receptor” value is recorded as “No activation”. The “concentration at which activation occurs” value in series [5] (OR5A2 with SEQ ID NO: 86) is under 0.01 µM. In addition, the Comments on efficacy result in [6] is recorded as “No induction wild-type”. This compound displayed a Fold-improvement potency in [6] of over 300. The Fold-improvement threshold in [6] is on record as over 20000.

On to `CC1CCC(C(C)C)C(O)C1` (stereo not drawn) [Menthol], for which the “Detection threshold; concentration for 2-fold induction” value in [7] is 160 µM; in series [8], 11 µM. The EC50 turned out to be 236 µM in [7] (wild-type, read-out: Potency EC50) and 115 µM in series [8] (setting [12]). Besides, the Comments on efficacy in series [9] is on record as 3-fold lower maximal induction for wild-type. Further, the Fold-improvement potency in series [9] amounted to 2. For the same compound, in [9] (OR8K3 with C-terminal sequence of OR1N2 or OR5AN1), the functional response entry is given as “did not show any functional response”.

For the compound `CC(=O)c1c(C)c([N+](=O)[O-])c(C(C)(C)C)c([N+](=O)[O-])c1C` [Musk ketone], the functional response result in series [10] is on record as “not showing any functional response”.

`C[C@H]1CCC2(O)C(C)(C)C3CCC2(C)C1C3` (stereo partly drawn) [Patchoulol, (4S)-4,8a,9,9-tetramethyloctahydro-1,6-methanonaphthalen-1(2H)-ol]: in series [11], the “activation of OR14J1” value is “activate OR14J1; also recorded: strong induction”.

Regarding `CC(C)[C@@H]1CC[C@@H](C)CC1=O` [menthone], in [7], the “Detection threshold; concentration for 2-fold induction” value is over 316 µM. Further, the “activation of modified receptor variant” value in [8] (OR8K3 with SEQ ID NO: 86) is “also activating the receptor, although with a lower potency”.
